Reference: publication PMC11287240 (RSC Advances, 2024)

Experiments:
[1] = target: EeAChE (Electrophorus electricus acetylcholinesterase) (Electrophorus electricus, UniProt O42275); assay: AChE inhibition assay; assay type: biochemical, electric eel
hBACE 1 = hBACE 1 (Homo sapiens, UniProt P56817); assay: BACE 1 FRET inhibition assay; assay type: biochemical; details: human BACE 1
[2] = hBACE 1 IC50 (μM) ± SD, mean ± SD, n = 3, FRET assay

Chain of hBACE 1 (P56817 46-501): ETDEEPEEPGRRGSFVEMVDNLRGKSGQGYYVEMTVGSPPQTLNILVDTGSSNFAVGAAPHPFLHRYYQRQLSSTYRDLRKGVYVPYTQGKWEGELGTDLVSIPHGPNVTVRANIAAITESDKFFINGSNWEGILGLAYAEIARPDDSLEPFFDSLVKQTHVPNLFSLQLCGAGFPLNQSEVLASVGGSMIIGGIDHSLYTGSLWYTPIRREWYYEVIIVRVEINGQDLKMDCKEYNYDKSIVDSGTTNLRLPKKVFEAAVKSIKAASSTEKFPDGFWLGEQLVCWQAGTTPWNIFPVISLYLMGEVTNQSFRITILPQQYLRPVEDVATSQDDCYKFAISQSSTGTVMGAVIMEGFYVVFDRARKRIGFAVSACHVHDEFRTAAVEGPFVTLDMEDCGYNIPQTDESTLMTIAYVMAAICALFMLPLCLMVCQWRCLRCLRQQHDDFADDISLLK
Chain of EeAChE (Electrophorus electricus acetylcholinesterase) (O42275 24-633): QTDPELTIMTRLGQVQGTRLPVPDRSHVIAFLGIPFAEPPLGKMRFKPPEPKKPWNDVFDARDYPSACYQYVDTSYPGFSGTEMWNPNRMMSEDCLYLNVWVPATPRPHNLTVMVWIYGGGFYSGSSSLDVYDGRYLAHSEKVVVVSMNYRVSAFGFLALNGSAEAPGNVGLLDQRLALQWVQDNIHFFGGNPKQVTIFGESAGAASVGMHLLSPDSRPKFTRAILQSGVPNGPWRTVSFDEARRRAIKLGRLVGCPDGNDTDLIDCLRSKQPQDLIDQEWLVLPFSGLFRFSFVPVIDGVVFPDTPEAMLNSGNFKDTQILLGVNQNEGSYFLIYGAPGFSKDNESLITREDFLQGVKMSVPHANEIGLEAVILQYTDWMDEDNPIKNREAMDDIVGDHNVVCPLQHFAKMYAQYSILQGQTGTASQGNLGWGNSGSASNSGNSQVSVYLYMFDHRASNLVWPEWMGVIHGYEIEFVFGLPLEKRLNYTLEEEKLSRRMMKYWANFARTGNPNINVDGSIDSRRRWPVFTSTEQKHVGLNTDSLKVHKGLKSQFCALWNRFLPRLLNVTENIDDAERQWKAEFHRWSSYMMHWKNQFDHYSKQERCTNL

Row | SMILES | IC50 [1] [µM] | IC50 (hBACE 1; [2]) [µM] | IC50 (hBACE 1; hBACE 1 PIC50 (μM)) [µM]
1 | [H]/N=C(/N)NN=C(/C=C/c1ccc(OCc2ccccc2)cc1)c1cn(Cc2ccc(C)cc2)c2ccccc12 [Compound 3e, (Z)-2-((E)-3-(4-(Benzyloxy)phenyl)-1-(1-(4-methylbenzyl)-1H-indol-3-yl)allylidene)hydrazine-1-carboximidamide] | 144 ± 1.77 | 107 ± 2.55 | 107
2 | [H]/N=C(/N)NN=C(/C=C/c1ccccc1)c1cn(Cc2ccc(C(F)(F)F)cc2)c2ccccc12 [Compound 2b, (Z)-2-((E)-3-Phenyl-1-(1-(4-(trifluoromethyl)benzyl)-1H-indol-3-yl)allylidene)hydrazine-1-carboximidamide] | 56 ± 2.44 | 102 ± 1.06 | 102
3 | [H]/N=C(/N)NN=C(/C=C/c1ccc(Br)cc1)c1cn(Cc2ccccc2)c2ccccc12 [Compound 1i, (Z)-2-((E)-1-(1-Benzyl-1H-indol-3-yl)-3-(4-bromophenyl)allylidene)hydrazine-1-carboximidamide] | 73.1 ± 2.07 | 97.83 ± 0.31 | 97.7
4 | [H]/N=C(/N)NN=C(/C=C/c1ccc(C(C)C)cc1)c1cn(Cc2ccccc2)c2ccccc12 [Compound 1d, (Z)-2-((E)-1-(1-Benzyl-1H-indol-3-yl)-3-(4-isopropylphenyl)allylidene)hydrazine-1-carboximidamide] | 146 ± 3.18 | 11.7 ± 0.15 | 11.7
5 | [H]/N=C(/N)NN=C(/C=C/c1ccc(C(C)C)cc1)c1cn(Cc2cc(F)ccc2F)c2ccccc12 [Compound 3f, (Z)-2-((E)-1-(1-(2,5-Difluorobenzyl)-1H-indol-3-yl)-3-(4-isopropylphenyl)allylidene)hydrazine-1-carboximidamide] | 167 ± 2.12 | 82.1 ± 2.74 | 81.3
6 | [H]/N=C(/N)NN=C(/C=C/c1cccc(Br)c1)c1cn(Cc2ccccc2)c2ccccc12 [Compound 1h, (Z)-2-((E)-1-(1-Benzyl-1H-indol-3-yl)-3-(3-bromophenyl)allylidene)hydrazine-1-carboximidamide] | 66.3 ± 1.72 | 15.1 ± 0.74 | 15.1
7 | [H]/N=C(/N)NN=C(/C=C/c1ccc(C(F)(F)F)cc1)c1cn(Cc2ccc(CCCC)cc2)c2ccccc12 [Compound 3j, (Z)-2-((E)-1-(1-(4-Butylbenzyl)-1H-indol-3-yl)-3-(4-(trifluoromethyl)phenyl)allylidene)hydrazine-1-carboximidamide] | 13.4 ± 0.49 | 182.4 ± 1.41 | 182
8 | [H]/N=C(/N)NN=C(/C=C/c1ccccc1)c1cn(Cc2ccc(Br)cc2F)c2ccccc12 [Compound 2i, (Z)-2-((E)-1-(1-(4-Bromo-2-fluorobenzyl)-1H-indol-3-yl)-3-phenylallylidene)hydrazine-1-carboximidamide] | 42.6 ± 1.58 | 185.95 ± 0.07 | 186
9 | [H]/N=C(/N)NN=C(/C=C/c1ccc(C(C)(C)C)cc1)c1cn(Cc2ccc(-c3ccccc3)cc2)c2ccccc12 [Compound 3c, (Z)-2-((E)-1-(1-([1,1′-Biphenyl]-4-ylmethyl)-1H-indol-3-yl)-3-(4-(tert-butyl)phenyl)allylidene)hydrazine-1-carboximidamide] | 16.6 ± 1.04 | 201 ± 3.82 | 200
10 | [H]/N=C(/N)NN=C(/C=C/c1cccc(OC)c1)c1cn(Cc2ccccc2)c2ccccc12 [Compound 1e, (Z)-2-((E)-1-(1-Benzyl-1H-indol-3-yl)-3-(3-methoxyphenyl)allylidene)hydrazine-1-carboximidamide] | 137.8 ± 0.14 | 117.2 ± 0.57 | 117
11 | [H]/N=C(/N)NN=C(/C=C/c1ccccc1[N+](=O)[O-])c1cn(Cc2ccccc2)c2ccccc12 [Compound 1n, (Z)-2-((E)-1-(1-Benzyl-1H-indol-3-yl)-3-(2-nitrophenyl)allylidene)hydrazine-1-carboximidamide] | 216 ± 3.61 | 12.3 ± 0.6 | 12.3
12 | [H]/N=C(/N)NN=C(/C=C/c1ccccc1)c1cn(Cc2ccc(F)cc2F)c2ccccc12 [Compound 2a, (Z)-2-((E)-1-(1-(2,4-Difluorobenzyl)-1H-indol-3-yl)-3-phenylallylidene)hydrazine-1-carboximidamide] | 46.4 ± 1.63 | 200.1 ± 1.98 | 200
13 | [H]/N=C(/N)NN=C(/C=C/c1ccccc1)c1cn(Cc2cc(OC)cc(OC)c2)c2ccccc12 [Compound 2g, (Z)-2-((E)-1-(1-(3,5-Dimethoxybenzyl)-1H-indol-3-yl)-3-phenylallylidene)hydrazine-1-carboximidamide] | 55.6 ± 0.72 | 83.4 ± 1.93 | 83.2
